# From patent publication US20250223306A1, “TEAD INHIBITORS AND METHODS OF USE” (Sporos BioDiscovery, Inc., priority 2022, published 2025)
# System: NCI-H226 xenograft
# Assay: Inhibition of mouse xenograft NCI-H226 tumors
# Assay type: in vivo, BALB/c nude mice
# Conditions: Day 27, p.o., QD
# Description: This study evaluated the in vivo therapeutic efficacy of TEAD inhibitors in the treatment of the subcutaneous lung cancer NCI-H226 xenograft model in female BALB/c nude mice.
# • ANOVA Analysis of variance • BW Body weight • BWL Body weight loss • FFPE Formalin fixed paraffin embedded • IACUC Institutional animal care and use committee • MTV Mean tumor volume • N/A Not available or not applicable • p.o. Oral (ly) • QD Once a day • REG REG=[(T0−Ti)/T0]×100%; • Ti as the mean tumor volume of the treatment group on the measurement day; • T0 as the mean tumor volume of the treatment group on Day 0. • ROA Route of administration • RT Room temperature • RTV Relative tumor volume • SD Standard deviation • SEM Standard error of mean • SOC Standard of care used in clinical setting for a specific disease • TBD To be determined • T/C The Ti/Ci value (%): T/C %=Ti/Ci×100; • Ti and Ci are the mean tumor volumes of the treatment and control groups, respectively, on a given day. • TGI Tumor growth inhibition; TGI %=(1−Ti/Ci)×100; • Ti and Ci are the mean tumor volumes of the treatment and control groups, respectively, on a given day. • TV Tumor volume • PK/PD Pharmacokinetics/Pharmacodynamics • ΔInhibition Mean % ΔInhibition=((Ci−C0)−(Ti−T0))/(Ci−C0)*100% • Ti and Ci are the mean tumor volumes of the treatment and control groups, respectively, on a given day. T0 and C0 as the mean tumor volumes of the treatment and vehicle groups on Day 0.
# • Species Mus musculus • Strain Balb/c nude • Supplier GemPharmatech Co., Ltd • Gender Female • No. of Animals Ordered 68 (45 plus 23 spare) • No. of Animals Assigned 45 • to Study • Average Age of Animals 6-8 weeks • at Study Initiation
# The NCI-H226 cells (CL-00364) cancer cells were maintained in vitro with RPMI1640 medium supplemented with 10% fetal bovine serum at 37° C. in an atmosphere of 5% CO2 in the air. The cells in exponential growth phase were harvested and quantitated by cell counter before tumor inoculation.
# Each mouse was inoculated subcutaneously in the right front flank region with NCI-H226 tumor cells (1×10^7) in 0.2 ml of PBS mixed with Matrigel (1:1) for tumor development.
# The randomization was performed when the mean tumor size reached 138.81 mm^3. 45 mice were enrolled in the study. All animals were randomly allocated to 9 study groups, 5 mice in each group. Randomization was performed based on “Matched distribution” method/“Stratified” method (StudyDirector™ software, version 3.1.399.19)/randomized block design. The date of randomization was denoted as day 0.
# The treatment was initiated on the same day of randomization (day 0) per study design.
# After tumor cells inoculation, the animals were checked daily for morbidity and mortality. During routine monitoring, the animals were checked for any effects of tumor growth and treatments on behavior such as mobility, food and water consumption, body weight gain/loss (Body weights were measured twice per week after randomization), eye/hair matting and any other abnormalities. Mortality and observed clinical signs were recorded for individual animals in detail.
# Tumor volumes were measured twice per week after randomization in two dimensions using a caliper, and the volume was expressed in mm^3 using the formula: “V=(L×W×W)/2, where V is tumor volume, L is tumor length (the longest tumor dimension) and W is tumor width (the longest tumor dimension perpendicular to L). Dosing as well as tumor and body weight measurements were conducted in a Laminar Flow Cabinet.
# To compare tumor volumes of different groups at a pre-specified day, Bartlett's test was first used to check the assumption of homogeneity of variance across all groups. When the p-value of Bartlett's test was >=0.05, one-way ANOVA was performed to test overall equality of means across all groups. […]
Structure (SMILES),T/C (3 mg/kg) [%],TGI (3 mg/kg) [%],Tumor Volume (mean ± SEM) (3 mg/kg) [mm^3],T/C (10 mg/kg) [%],TGI (10 mg/kg) [%],Tumor Volume (mean ± SEM) (10 mg/kg) [mm^3],T/C (25 mg/kg) [%],TGI (25 mg/kg) [%],Tumor Volume (mean ± SEM) (25 mg/kg) [mm^3]
"C[C@H](NC(=O)c1cnc2c(C3=CCC(C(F)(F)F)CC3)cccc2c1)c1ccccn1 (stereo partly drawn) [Compound 2, N—((S)-1-(pyridin-2-yl)ethyl)-8-(4-(trifluoromethyl)cyclohex-1-en-1-yl)quinoline-3-carboxamide]",64.62,35.38,345.21 ± 85.33,45.64,54.36,243.78 ± 74.70,19.66,80.34,105.03 ± 13.17
"O=C(NCc1ncco1)c1cnc2c(C3=CCC(C(F)(F)F)CC3)cccc2c1 (stereo not drawn) [Compound 11, N-(oxazol-2-ylmethyl)-8-(4-(trifluoromethyl)cyclohex-1-en-1-yl)quinoline-3-carboxamide]",89.83,10.17,479.84 ± 96.60,36.49,63.51,194.94 ± 42.44,21.10,78.90,112.73 ± 17.20
